Here are results for four molecules from patent US5747472A, “Therapeutic methods for using ARA-G derivatives” (Glaxo Wellcome Inc., priority 1990, dated 1998).

Values after ≈ are worked out from the molar mass of the structure shown. “Also recorded” adds a separate entry of the source. Where two headings read alike, the source gives them in different places.

Series [1] is described as follows: Water solubility (statement). Format: physicochemical. To be noted: in words.
Series [2] relates to T cells compared to B cells; T-leukemic cells. The settings on record: cited from earlier work.
Another series has as its system Molt 4 cells. The series is described as follows: Inhibition of the growth of T cells (Molt 4). Format: cell-based. The settings on record: Homo sapiens. The method, then:
(§1) The compounds of the invention were tested for inhibition of the growth of T cells (Molt 4) compared to B cells (IM9) by the method of Averett, D., Journal of Virological Methods, 23, (1989), 263-276.

Series [3] can be described thus: Bioavailability after oral dosing in primates (statement). Format: in vivo. To be noted: in words.
For another series, the system named is IM9 cells. The series is described as follows: Inhibition of the growth of B cells (IM9). It is filed as cell-based. To be noted: Homo sapiens; for IC50: IM-9; for activity at 10 µM: IM-9, printed in parentheses beside IC50 >10 μM, read-out: % of Control growth. The method, then:
as §1

Series [4] can be described thus: Bioavailability of araG after oral administration to Cynomolgus monkeys (plasma, urine). Format: in vivo. The settings on record: fasted Cynomolgus monkeys, individual animals; for Cmax: read-out: Plasma araG Peak Level. The method, then:
AraG and compounds of the invention were administered orally to Cynomolgus monkeys which had been fasted for eight hours. Each compound was given to two monkeys. The dosage was 94 μmol/kg which is equivalent to 27 mg/kg araG. Blood samples were taken over the following 24 hours, and urine was collected over the same 24 hours. Concentrations of araG in plasma extracts and urine were determined by reverse phase HPLC.

A short description of series [5]: Solubility in PBS at 25° C. Format: physicochemical. The settings on record: aqueous buffer, phosphate buffered saline.
The test system of series [6] is human T-cell line (Molt 4) in contrast to a human B-cell line (IM9). The series is described as follows: Selective inhibition of T cell growth, Molt 4 compared to IM9. Format: cell-based. The settings on record: Molt 4 vs IM9. The method, then: as §1

Regarding `Nc1nc2c(ncn2[C@@H]2O[C@H](CO)[C@@H](O)[C@@H]2O)c(=O)[nH]1` [araG, arabinofuranosyl guanine], the water solubility entry in series [1] is listed as “limited water solubility”. For the same molecule, the “selective inhibition of growth of T cells / selective cytotoxic activity for T-leukemic cells” value in series [2] is on record as “selectively inhibits the growth of T cells compared to B cells; also recorded: selective cytotoxic activity for T-leukemic cells”. Besides, the IC50 (commonly the point on the concentration scale where inhibition reaches its midpoint) was 1400 ± 80 nM with Molt 4 cells and > 10000 nM in the series on IM9 cells. Also, the oral bioavailability entry in series [3] is on record as “low bioavailability after oral dosing in primates”. In addition, the activity at 10 µM with IM9 cells is 84%. For the same molecule, the “Plasma araG AUC 0.7 hrs” value in series [4] (94 μmol/kg, plasma, 420 min) came to 21.1 µM·h. In addition, the Cmax in series [4] (94 μmol/kg, plasma) was found to be 4.6 µM; in series [4] (cynomolgus monkey, plasma, po, 94 umol/kg, plasma) it was 6 µM. Further, the “Urine % Recovered as araG” value in series [4] (94 μmol/kg, urine over 24 hours, 1440 min) is listed as 4.2%. The AUC(0-t) at 7 h in series [4] (cynomolgus monkey, plasma, po, 94 umol/kg, plasma, read-out: Plasma araG AUC 0.7 hrs) was 20.8 µM·h. Besides, the dose excreted at 24 h in series [4] (cynomolgus monkey, urine, po, 94 umol/kg, urine over 24 hours, read-out: Urine % Recovered as araG) turned out to be 3.9%. The solubility – broadly, the concentration that dissolves in the medium under given conditions – in series [5] came to 4 mM (≈ 1.13 mg/mL).

Take `COc1nc(N)nc2c1ncn2[C@@H]1O[C@H](COC(C)=O)[C@@H](O)[C@@H]1O` [Example 1b, 9-(5-O-Acetyl-β-D-arabinofuranosyl)-2-amino-6-methoxy-9H-purine]: the solubility in series [5] stood at 92 mM (≈ 31.2 mg/mL).

In series [5], `COc1nc(N)nc2c1ncn2[C@@H]1O[C@H](COC(C)=O)[C@@H](OC(C)=O)[C@@H]1O` [Example 2j, 9-(3,5-di-O-Acetyl-β-D-arabinofuranosyl)-2-amino-6-methoxy-9H-purine] returned a solubility of 38 mM (≈ 14.5 mg/mL).

As to `COc1nc(N)nc2c1ncn2[C@@H]1O[C@H](CO)[C@@H](O)[C@@H]1O` [compound 1, 2-Amino-6-methoxy-9-(β-D-arabinofuranosyl)-9H-purine], the “selective inhibition of growth of T-cell line vs B-cell line” value in series [6] is recorded as “selectively inhibits the growth of a human T-cell line (Molt 4) in contrast to a human B-cell line (IM9)”. For the same molecule, the results for the IC50 in the series on Molt 4 cells and in the series with IM9 cells were 800 ± 100 nM and > 10000 nM, respectively. Besides, in the series on IM9 cells, the activity at 10 µM worked out at 85%.
